Data: patent US20250144067A1, “PERSONALIZED STARVATION THERAPY FOR CANCER” (Faeth Therapeutics, Inc., priority 2021, published 2025)
Counter-ions that a name gives are not always drawn. Like-named read-outs stand apart in the source and are kept apart here.

Tests used:
[1] = test system: NCI-H292 lung cancer cells; assay: FDA drug screening, complete media vs cholesterol-free media without statin (TABLE 1); assay type: cell-based, human
[2] = test system: NCI-H292 lung cancer cells; assay: FDA drug screening, complete media vs cholesterol-free media with simvastatin (TABLE 2); assay type: cell-based, human
[3] = NCI-H292 cells, cholesterol-free media without statin
[4] = NCI-H292 cells, FDA drug library screen, cholesterol-free media with simvastatin 0.04 μM
[5] = NCI-H292 cells, FDA drug library screen, complete media
[6] = complete media minus cholesterol-free media + simvastatin, >0 enhanced anti-cancer activity, about 0 neutral, <0 antagonist
[7] = Complete minus Cholesterol-free, >0 enhanced anti-cancer activity, about 0 neutral, <0 antagonist
[8] = NCI-H292 cells, cholesterol-free media with simvastatin 0.04 μM, FDA drug library screen (TABLE 2)
[9] = NCI-H292 cells, complete media, FDA drug library screen (TABLE 2)
[10] = complete media minus cholesterol-free media + simvastatin (0.04 μM), >0 enhanced anti-cancer activity, about 0 neutral, <0 antagonist
[11] = NCI-H292 cells, cholesterol-free media without statin, FDA drug library screen
[12] = NCI-H292 cells, complete media, FDA drug library screen
[13] = complete vs cholesterol-free media, >0 enhanced anti-cancer activity, about 0 neutral, <0 antagonist
[14] = NCI-H292 cells, cholesterol-free media with simvastatin 0.04 μM, cell growth value in FDA drug screen
[15] = NCI-H292 cells, complete media, cell growth value in FDA drug screen
[16] = Complete minus Cholesterol-free, greater than 0 enhanced anti-cancer activity, about 0 neutral, below 0 antagonists
[17] = NCI-H292 cells in cholesterol-free media without statin
[18] = NCI-H292 cells in complete media
[19] = complete media vs cholesterol-free media + simvastatin (0.04 μM), >0 enhanced anti-cancer activity, about 0 neutral, <0 antagonist
[20] = Complete minus Cholesterol-free, greater than 0 enhanced anti-cancer activity, about 0 neutral, below 0 antagonist
[21] = NCI-H292 cells, FDA drug library screen, cholesterol-free media without statin
[22] = Complete minus Cholesterol-free, […]
[23] = NCI-H292 cells, cholesterol-free media with simvastatin 0.04 μM, […]
[24] = NCI-H292 cells, complete media, […]
[25] = complete media minus cholesterol-free media + simvastatin, […]
[26] = NCI-H292 cells, FDA library drug in cholesterol-free media with simvastatin 0.04 μM
[27] = NCI-H292 cells, FDA library drug in complete media

`N#Cc1ccc2[nH]cc(CCCCN3CCN(c4ccc5oc(C(N)=O)cc5c4)CC3)c2c1` [Vilazodone (Hydrochloride)] was tested, and the Cholesterol-free [1, 3] was 1.019, the Complete ([1]; NCI-H292 cells, complete media) was 0.6984 and the Difference ([1]; complete vs cholesterol-free media, greater than 0 enhanced anti-cancer activity, about 0 neutral, below 0 antagonists) was −0.32. For the same compound, the “Cholesterol-free media + simvastatin (0.04 μM)” value [2, 4] was 0.5785, the “Complete Media” value [2, 5] was 0.8037 and the Difference [2, 6] was 0.23.

For `N#Cc1ccc2[nH]cc(CCCCN3CCN(c4ccc5oc(C(=O)O)cc5c4)CC3)c2c1` [Vilazodone carboxylic acid], the Difference [1, 7] was −0.19, the Cholesterol-free [1, 3] was 0.9582 and the Complete ([1]; NCI-H292 cells, complete media) was 0.7696. The “Cholesterol-free media + simvastatin (0.04 μM)” value [2, 8] was 1.218, the “Complete Media” value [2, 9] was 1.232 and the Difference [2, 10] was 0.01.

`N#Cc1ccc2[nH]cc(CCCCN3CCN(c4ccc5oc(C(N)=O)cc5c4)CC3)c2c1` [Vilazodone] showed a Cholesterol-free [1, 11] of 0.8843, a Complete [1, 12] of 1.054 and a Difference [1, 13] of 0.17. For the same compound, the “Cholesterol-free media + simvastatin (0.04 μM)” value [2, 14] was 0.8049, the “Complete Media” value [2, 15] was 0.9107 and the Difference [2, 6] was 0.11.

`N#C[C@@H]1CCCN1C(=O)CNC12CC3CC(CC(O)(C3)C1)C2` [Vildagliptin] was tested, and the Difference [1, 16] was −0.50, the Cholesterol-free [1, 17] was 1.213 and the Complete [1, 18] was 0.7138. The “Cholesterol-free media + simvastatin (0.04 μM)” value [2, 4] was 1.588, the “Complete Media” value [2, 5] was 1.466 and the Difference [2, 19] was −0.12.

Compound `CC[C@]12CCCN3CCc4c(n(c5ccccc45)C(=O)C1)[C@@H]32` [Vinburnine] has a Cholesterol-free [1, 11] of 0.8229, a Complete [1, 12] of 1.424 and a Difference [1, 13] of 0.60. For the same compound, the “Cholesterol-free media + simvastatin (0.04 μM)” value [2, 4] was 1.049, the “Complete Media” value [2, 5] was 1.235 and the Difference [2, 6] was 0.19.

`CC[C@]12CCCN3CCc4c(n(c5ccccc45)[C@@](O)(C(=O)OC)C1)[C@@H]32` [Vincamine] showed a Cholesterol-free [1, 11] of 0.6922, a Complete [1, 12] of 1.178 and a Difference [1, 13] of 0.49. The “Cholesterol-free media + simvastatin (0.04 μM)” value [2, 8] was 0.8199, the “Complete Media” value [2, 9] was 0.7686 and the Difference [2, 10] was −0.05.

In the case of `CCOC(=O)C1=C[C@]2(CC)CCCN3CCc4c(n1c1ccccc41)[C@@H]32` [Vinpocetine], the Difference [1, 20] is reported as −0.09, the Cholesterol-free [1, 21] is reported as 0.912 and the Complete [1, 5] is reported as 0.8209. The “Cholesterol-free media + simvastatin (0.04 μM)” value [2, 14] was 0.854, the “Complete Media” value [2, 15] was 0.8952 and the Difference [2, 6] was 0.04.

`CS(=O)(=O)c1ccc(C(=O)Nc2ccc(Cl)c(-c3ccccn3)c2)c(Cl)c1` [Vismodegib] was tested, and the Difference [1, 7] was −0.05, the Cholesterol-free [1, 11] was 1.219 and the “Cholesterol-free media + simvastatin (0.04 μM)” value [2, 8] was 1.089. For the same compound, the “Complete Media” value [2, 9] was 1.052 and the Difference [2, 10] was −0.04.

Work on `CC1=C(C)C(=O)C(CCCCCCCCCC[P+](c2ccccc2)(c2ccccc2)c2ccccc2)=CC1=O.[Br-]` [Visomitin] yielded a Difference [1, 22] of −0.06, a Cholesterol-free [1, 11] of 0.06935 and a Complete [1, 12] of 0.01194. The “Cholesterol-free media + simvastatin (0.04 μM)” value [2, 23] was 0.1378, the “Complete Media” value [2, 24] was 0.1554 and the Difference [2, 25] was 0.02.

`C=C1CC[C@H](O)C/C1=C/C=C1\CCC[C@]2(C)[C@@H]([C@H](C)/C=C/[C@H](C)C(C)C)CC[C@@H]12` [Vitamin D2] showed a Difference [1, 16] of −0.62, a Cholesterol-free [1, 17] of 1.409 and a Complete [1, 18] of 0.7927. The “Cholesterol-free media + simvastatin (0.04 μM)” value [2, 4] was 1.05, the “Complete Media” value [2, 5] was 0.9687 and the Difference [2, 19] was −0.08.

`CC1=C(C/C=C(\C)CCC[C@H](C)CCC[C@H](C)CCCC(C)C)C(=O)c2ccccc2C1=O` [Vitamin K1] gave a Cholesterol-free [1, 11] of 0.9273, a Complete [1, 12] of 1.412 and a Difference [1, 13] of 0.48. For the same compound, the “Cholesterol-free media + simvastatin (0.04 μM)” value [2, 26] was 1.062, the “Complete Media” value [2, 27] was 0.6359 and the Difference [2, 19] was −0.43.

For `CC(=O)Oc1cc(C)c(OC(C)=O)c2ccccc12` [Vitamin K4], the Difference [1, 22] was −0.21, the Cholesterol-free [1, 3] was 0.9817 and the Complete ([1]; NCI-H292 cells, complete media) was 0.7726. For the same compound, the “Cholesterol-free media + simvastatin (0.04 μM)” value [2, 23] was 0.7559, the “Complete Media” value [2, 24] was 0.8779 and the Difference [2, 25] was 0.12.

In the case of `OCC(CO)N[C@H]1C[C@](O)(CO)[C@@H](O)[C@H](O)[C@H]1O` [Voglibose], the Cholesterol-free [1] is reported as 1.147, the Complete [1] is reported as 1.027 and the Difference [1] is reported as −0.12. For the same compound, the “Cholesterol-free media + simvastatin (0.04 μM)” value [2] was 0.9097, the “Complete Media” value [2] was 0.6837 and the Difference [2] was −0.23.

`CNCc1cc(-c2ccccc2F)n(S(=O)(=O)c2cccnc2)c1` [Vonoprazan] showed a Difference [1, 20] of −0.07, a Cholesterol-free [1, 21] of 1.105 and a Complete [1, 5] of 1.031. For the same compound, the “Cholesterol-free media + simvastatin (0.04 μM)” value [2, 26] was 1.249, the “Complete Media” value [2, 27] was 0.8473 and the Difference [2, 19] was −0.40.
